Assay results reported in patent EP4674965A1, “SIRNA TARGETING INHIBIN ?E, SIRNA CONJUGATE, AND MEDICAL USE THEREOF” (Tuojie Biotech (Shanghai) Co., Ltd., priority 2023, dated 2024).

Tests used:
human INHBE = assay: Multi-concentration-point inhibitory activity against INHBE in human hepatoma cell line (Huh7), qPCR; type: cell-based; details: for Remaining percentage of target gene mRNA expression (Huh7) (mean, %): Huh7, 24 h; for IC50: Huh7, INHBE mRNA, 24 h
Description: (§1) After the Q-PCR assay was completed, the corresponding Ct values were obtained based on the threshold automatically set by the system. The expression of a certain gene can be relatively quantified by comparing the Ct values. Comparing Ct refers to calculating the differences in gene expression by the differences from the Ct value of the internal reference gene, which is also referred to as 2-ΔΔCt, where ΔΔCt = [(Ct target gene in experimental group - Ct internal reference in experimental group) - (Ct target gene in control group - Ct internal reference in control group)]. Inhibition rate (%) = (1 - remaining level of target gene expression) × 100%.
(§2) The results are expressed relative to the remaining percentage of human INHBE mRNA expression in cells treated with the siRNA. The IC50 value corresponds to the concentration of the siRNA used when the remaining percentage of INHBE mRNA expression is 50%.
(§3) 24 h prior to transfection, Huh7 cells were seeded into a 96-well plate at about 15,000 cells/well, with each well containing 100 µL of a culture medium. The cells were transfected with the samples using Lipofectamine RNAi MAX (ThermoFisher, 13778150) following the instruction manual of the product, with the final concentration gradients of the samples for transfection being 20 nM, 4 nM, 0.8 nM, 0.16 nM, 0.032 nM, 0.0064 nM, and 0.00128 nM. After 24 h of treatment, total cellular RNA extraction was performed using a high-throughput cellular RNA extraction kit (FG0417-L/FG0418-XL, magnetic bead method), followed by an RNA reverse transcription experiment (Takara, RR037A) and a quantitative real-time PCR (Thermo, 4444557) assay. The mRNA level of human INHBE was determined and calibrated on the basis of the GAPDH internal reference gene level.
The instruments, primer information, and result analysis method involved in this experiment were used with reference to Example 4.

monkey INHBE = assay: Multi-concentration-point inhibitory activity against INHBE in primary monkey hepatocytes (PCHs), qPCR; type: cell-based; details: 24 h; for IC50: PCH, monkey INHBE mRNA
Description: as §1, §2
as §3, with “PCH” for “Huh7”, “30,000” for “15,000”, “monkey” for “human”
In the real-time quantitative PCR assay, a probe Q-PCR assay was used. Table 15. Taqman primer information
The result analysis method and calculation method for the remaining percentage of the target mRNA expression were the same as those in Example 4.

Substance | Remaining percentage of target gene mRNA expression (Huh7) (mean, %) (human INHBE; 0.00128 (nM per method)) [%] | Remaining percentage of target gene mRNA expression (Huh7) (mean, %) (human INHBE; 0.0064 (nM per method)) [%] | Remaining percentage of target gene mRNA expression (Huh7) (mean, %) (human INHBE; 0.032 (nM per method)) [%] | Remaining percentage of target gene mRNA expression (Huh7) (mean, %) (human INHBE; 0.16 (nM per method)) [%] | Remaining percentage of target gene mRNA expression (Huh7) (mean, %) (human INHBE; 0.8 (nM per method)) [%] | Remaining percentage of target gene mRNA expression (Huh7) (mean, %) (human INHBE; 4 (nM per method)) [%] | Remaining percentage of target gene mRNA expression (Huh7) (mean, %) (human INHBE; 20 (nM per method)) [%] | IC50 (human INHBE) [nM] | Remaining percentage of target gene mRNA expression (PCH) (mean, %) (monkey INHBE; 0.00128 (nM per method)) [%] | Remaining percentage of target gene mRNA expression (PCH) (mean, %) (monkey INHBE; 0.0064 (nM per method)) [%] | Remaining percentage of target gene mRNA expression (PCH) (mean, %) (monkey INHBE; 0.032 (nM per method)) [%] | Remaining percentage of target gene mRNA expression (PCH) (mean, %) (monkey INHBE; 0.16 (nM per method)) [%] | Remaining percentage of target gene mRNA expression (PCH) (mean, %) (monkey INHBE; 0.8 (nM per method)) [%] | Remaining percentage of target gene mRNA expression (PCH) (mean, %) (monkey INHBE; 4 (nM per method)) [%] | Remaining percentage of target gene mRNA expression (PCH) (mean, %) (monkey INHBE; 20 (nM per method)) [%] | IC50 (monkey INHBE) [nM]
TJR102152: siRNA conjugate (Tables 14, 16); SS SEQ ID NO: 245, AS SEQ ID NO: 269 (sense UAAUAAUACUAACAUGUUA; antisense UAACAUGUUAGUAUUAUUAUG; conjugate ligand attached, 2'-OMe/2'-F pattern not given here) | 108.45 | 109.51 | 98.76 | 76.27 | 51.25 | 37.74 | 25.82 | 0.92 | 104.56 | 77.88 | 49.77 | 43.37 | 49.75 | 46.38 | 39.63 | 0.0302
TJR102154: siRNA conjugate (Tables 14, 16); SS SEQ ID NO: 243, AS SEQ ID NO: 267 (sense UCAAAGCUAUUUUCAUAAU; antisense AUUAUGAAAAUAGCUUUGACU; conjugate ligand attached, 2'-OMe/2'-F pattern not given here) | 103.41 | 100.81 | 91.17 | 50.85 | 32.23 | 30.29 | 20.46 | 0.176 | 85.05 | 96.98 | 72.01 | 50.20 | 47.38 | 51.47 | 58.66 | 0.04
